Measurements as given in US12152020B2, “Pesticidally active azole-amide compounds” (SYNGENTA PARTICIPATIONS AG, priority 2018, dated 2024).

Tests used:
Type in all cases: in vivo
[1] = tested on: Diabrotica balteata (Corn Root Worm); assay: Example B1: Diabrotica balteata, maize sprouts sprayed, L2 larvae; details: 96 h, application rate of 200 ppm, 4 days after infestation, in comparison to untreated samples, read-out: effect in at least one of the two categories (mortality or growth inhibition)
Procedure: Example B1: Diabrotica balteata (Corn Root Worm)
Maize sprouts placed onto an agar layer in 24-well microtiter plates were treated with aqueous test solutions prepared from 10′000 ppm DMSO stock solutions by spraying. After drying, the plates were infested with L2 larvae (6 to 10 per well). The samples were assessed for mortality and growth inhibition in comparison to untreated samples 4 days after infestation.
The following compounds gave an effect of at least 80% in at least one of the two categories (mortality or growth inhibition) at an application rate of 200 ppm: • P2, P3, P4, P5, P6, P7, P8, P14, P15, P16, P17, P18, P19, P20, P21, P22, P23, P24, P25, P27, P28, P29, P30, P31, P32, P33, P34, P35

[2] = tested on: Euschistus heros (Neotropical Brown Stink Bug); assay: Example B2: Euschistus heros, soybean leaves sprayed, N2 nymphs; details: 120 h, application rate of 200 ppm, 5 days after infestation, in comparison to untreated samples, read-out: effect in at least one of the two categories (mortality or growth inhibition)
Procedure: Example B2: Euschistus heros (Neotropical Brown Stink Bug)
Soybean leaves on agar in 24-well microtiter plates were sprayed with aqueous test solutions prepared from 10′000 ppm DMSO stock solutions. After drying the leaves were infested with N2 nymphs. The samples were assessed for mortality and growth inhibition in comparison to untreated samples 5 days after infestation.
The following compounds gave an effect of at least 80% in at least one of the two categories (mortality or growth inhibition) at an application rate of 200 ppm: • P1, P2, P3, P7, P11, P12, P16, P17, P18, P22, P25, P29, P32, P33, P37, P38

[3] = tested on: Chilo suppressalis (Striped Rice Stemborer); assay: Example B4: Chilo suppressalis, artificial diet, L2 larvae; details: 144 h, application rate of 200 ppm, 6 days after infestation, in comparison to untreated samples, read-out: control in at least one of the categories (mortality, anti-feedant effect, or growth inhibition)
Procedure: Example B4: Chilo suppressalis (Striped Rice Stemborer)
24-well microtiter plates with artificial diet were treated with aqueous test solutions prepared from 10′000 ppm DMSO stock solutions by pipetting. After drying, the plates were infested with L2 larvae (6-8 per well). The samples were assessed for mortality, anti-feeding effect, and growth inhibition in comparison to untreated samples 6 days after infestation. Control of Chilo suppressalis by a test sample is given when at least one of the categories mortality, anti-feedant effect, and growth inhibition is higher than the untreated sample.

[4] = tested on: Plutella xylostella (Diamond Back Moth); assay: Example B5: Plutella xylostella, artificial diet in 24-well plates, eggs; details: 192 h, application rate of 200 ppm, 8 days after infestation, in comparison to untreated samples, read-out: effect in at least one of the two categories (mortality or growth inhibition)
Procedure: Example B5: Plutella xylostella (Diamond Back Moth)
24-well microtiter plates with artificial diet were treated with aqueous test solutions prepared from 10′000 ppm DMSO stock solutions by pipetting. After drying, Plutella eggs were pipetted through a plastic stencil onto a gel blotting paper and the plate was closed with it. The samples were assessed for mortality and growth inhibition in comparison to untreated samples 8 days after infestation.
The following compounds gave an effect of at least 80% in at least one of the two categories (mortality or growth inhibition) at an application rate of 200 ppm: • P1, P2, P3, P4, P5, P7, P8, P9, P14, P15, P16, P17, P18, P21, P22, P23, P24, P25, P27, P28, P29, P30, P31, P32, P33, P34, P35, P36

[5] = tested on: Spodoptera littoralis (Egyptian Cotton Leaf Worm); assay: Example B9: Spodoptera littoralis, cotton leaf discs sprayed, L1 larvae; details: foliar, 72 h, application rate of 200 ppm, five L1 larvae, 3 days after infestation, in comparison to untreated samples, read-out: control in at least one of the categories (mortality, anti-feedant effect, or growth inhibition)
Procedure: Example B9: Spodoptera littoralis (Egyptian Cotton Leaf Worm)
Cotton leaf discs were placed onto agar in 24-well microtiter plates and sprayed with aqueous test solutions prepared from 10′000 ppm DMSO stock solutions. After drying the leaf discs were infested with five L1 larvae. The samples were assessed for mortality, anti-feeding effect, and growth inhibition in comparison to untreated samples 3 days after infestation. Control of Spodoptera littoralis by a test sample is given when at least one of the categories mortality, anti-feedant effect, and growth inhibition is higher than the untreated sample.

[6] = tested on: Myzus persicae (Green Peach Aphid); assay: Example B13: Myzus persicae, sucrose solution under Parafilm, 96-well; details: 120 h, application rate of 50 ppm, 5 days after infestation
From the text: Example B13: Myzus persicae (Green Peach Aphid)
Test compounds prepared from 10′000 ppm DMSO stock solutions were applied by a liquid handling robot into 96-well microtiter plates and mixed with a sucrose solution. Parafilm was stretched over the 96-well microtiter plate and a plastic stencil with 96 holes was placed onto the plate. Aphids were sieved into the wells directly onto the Parafilm. The infested plates were closed with a gel blotting card and a second plastic stencil and then turned upside down. The samples were assessed for mortality 5 days after infestation.

[7] = tested on: Plutella xylostella (Diamondback Moth); assay: Example B14: Plutella xylostella, artificial diet in 96-well plates, eggs; details: 216 h, application rate of 500 ppm, 9 days after infestation
Procedure: Example B14: Plutella xylostella (Diamondback Moth)
96-well microtiter plates containing artificial diet were treated with aqueous test solutions, prepared from 10′000 ppm DMSO stock solutions, by a liquid handling robot. After drying, eggs (˜30 per well) were infested onto a netted lid which was suspended above the diet. The eggs hatch and L1 larvae move down to the diet. The samples were assessed for mortality 9 days after infestation.
The following compounds gave an effect of at least 80% average mortality at an application rate of 500 ppm: • P2, P3, P5, P6, P7, P9, P15, P16, P17, P18, P20, P22, P24, P25, P30, P31, P32, P33, P38.

[8] = tested on: Frankliniella occidentalis (Western Flower Thrips); assay: Example B3: Frankliniella occidentalis feeding/contact activity, sunflower leaf discs; details: foliar, 168 h, application rate of 200 ppm, population of mixed ages, 7 days after infestation
Procedure: Example B3: Frankliniella occidentalis (Western Flower Thrips):Feeding/Contact Activity
Sunflower leaf discs were placed on agar in 24-well microtiter plates and sprayed with aqueous test solutions prepared from […] stock solutions. After drying the leaf discs were infested with a Frankliniella population of mixed ages. The samples were assessed for mortality 7 days after infestation.

[9] = tested on: Myzus persicae (Green Peach Aphid); assay: Example B8: Myzus persicae intrinsic activity, sucrose solution under Parafilm, 24-well; details: 120 h, test rate of 12 ppm, 5 days after infestation
From the text: Example B8: Myzus persicae (Green Peach Aphid): Intrinsic Activity
Test compounds prepared from 10′000 ppm DMSO stock solutions were applied by pipette into 24-well microtiter plates and mixed with sucrose solution. The plates were closed with a stretched Parafilm. A plastic stencil with 24 holes was placed onto the plate and infested pea seedlings were placed directly on the Parafilm. The infested plate was closed with a gel blotting paper and another plastic stencil and then turned upside down. The samples were assessed for mortality 5 days after infestation.

[10] = tested on: Myzus persicae (Green Peach Aphid); assay: Example B6: Myzus persicae feeding/contact activity, sunflower leaf discs; details: foliar, 144 h, application rate of 200 ppm, aphid population of mixed ages, 6 days after infestation
Procedure: Example B6: Myzus persicae (Green Peach Aphid): Feeding/Contact Activity
Sunflower leaf discs were placed onto agar in a 24-well microtiter plate and sprayed with aqueous test solutions prepared from 10′000 ppm DMSO stock solutions. After drying, the leaf discs were infested with an aphid population of mixed ages. The samples were assessed for mortality 6 days after infestation.

CC(NC(=O)c1cc(Cl)cc(C(F)(F)F)c1)c1nc(Br)nn1-c1ncccn1 (centres unmarked) [Compound P33, N-[1-(5-bromo-2-pyrimidin-2-yl-1,2,4-triazol-3-yl)ethyl]-3-chloro-5-(trifluoromethyl) benzamide]
≥ 80%: percent effect (mortality or growth inhibition) at 200 ppm [1] | percent effect (mortality or growth inhibition) at 200 ppm [2] | percent control (mortality, anti-feedant effect or growth inhibition) at 200 ppm [3] | percent effect (mortality or growth inhibition) at 200 ppm [4] | percent control (mortality, anti-feedant effect or growth inhibition) at 200 ppm [5] | mortality at 50 ppm [6] | mortality at 500 ppm [7]

CC(NC(=O)c1cc(C(F)(F)F)cc(C(F)(F)F)c1)c1nc(OC(F)(F)F)nn1-c1ccccn1 (centres unmarked) [Compound P25, N-[1-[2-(2-pyridyl)-5-(trifluoromethoxy)-1,2,4-triazol-3-yl]ethyl]-3,5-bis(trifluoromethyl) benzamide]
≥ 80%: percent effect (mortality or growth inhibition) at 200 ppm [1] | percent effect (mortality or growth inhibition) at 200 ppm [2] | percent control (mortality, anti-feedant effect or growth inhibition) at 200 ppm [3] | percent effect (mortality or growth inhibition) at 200 ppm [4] | percent control (mortality, anti-feedant effect or growth inhibition) at 200 ppm [5] | mortality at 500 ppm [7]

CC(NC(=O)c1cc(C(F)(F)F)cc(C(F)(F)F)c1)c1nc(-c2ncno2)nn1-c1ncccn1 (centres unmarked) [Compound P1, N-[1-[5-(1,2,4-oxadiazol-5-yl)-2-pyrimidin-2-yl-1,2,4-triazol-3-yl]ethyl]-3,5-bis(trifluoromethyl)benzamide]
≥ 80%: percent effect (mortality or growth inhibition) at 200 ppm [2] | mortality at 200 ppm [8] | percent control (mortality, anti-feedant effect or growth inhibition) at 200 ppm [3] | percent effect (mortality or growth inhibition) at 200 ppm [4]

CC(NC(=O)c1cc(C(F)(F)F)cc(C(F)(F)F)c1)c1nc(OC(F)F)nn1-c1ncccn1 (centres unmarked) [Compound P28, N-[1-[5-(difluoromethoxy)-2-pyrimidin-2-yl-1,2,4-triazol-3-yl]ethyl]-3,5-bis(trifluoromethyl)benzamide]
≥ 80%: percent effect (mortality or growth inhibition) at 200 ppm [1] | mortality at 200 ppm [8] | percent control (mortality, anti-feedant effect or growth inhibition) at 200 ppm [3] | percent effect (mortality or growth inhibition) at 200 ppm [4] | mortality at 12 ppm [9] | percent control (mortality, anti-feedant effect or growth inhibition) at 200 ppm [5]

CC(NC(=O)c1cc(C(F)(F)F)cc(C(F)(F)F)c1)c1nc(C=O)nn1-c1ncccn1 (centres unmarked) [Compound P38, N-[1-(5-formyl-2-pyrimidin-2-yl-1,2,4-triazol-3-yl)ethyl]-3,5-bis(trifluoromethyl) benzamide]
≥ 80%: percent effect (mortality or growth inhibition) at 200 ppm [2] | mortality at 12 ppm [9] | mortality at 50 ppm [6] | mortality at 500 ppm [7]

CC(NC(=O)c1cc(C(F)(F)F)cc(C(F)(F)F)c1)c1nc(-c2nnco2)nn1-c1ncccn1 (centres unmarked) [Compound P30, N-[1-[5-(1,3,4-oxadiazol-2-yl)-2-pyrimidin-2-yl-1,2,4-triazol-3-yl]ethyl]-3,5-bis(trifluoromethyl)benzamide]
≥ 80%: percent effect (mortality or growth inhibition) at 200 ppm [1] | percent control (mortality, anti-feedant effect or growth inhibition) at 200 ppm [3] | percent effect (mortality or growth inhibition) at 200 ppm [4] | mortality at 12 ppm [9] | percent control (mortality, anti-feedant effect or growth inhibition) at 200 ppm [5] | mortality at 50 ppm [6] | mortality at 500 ppm [7]

CC(c1nc(C(=O)N(C)C)nn1-c1ncccn1)N(C)C(=O)c1cc(C(F)(F)F)cc(C(F)(F)F)c1 (centres unmarked) [Compound P11, 5-[1-[[3,5-bis(trifluoromethyl)benzoyl]-methyl-amino]ethyl]-N,N-dimethyl-1-pyrimidin-2-yl-1,2,4-triazole-3-carboxamide]
≥ 80%: percent effect (mortality or growth inhibition) at 200 ppm [2] | percent control (mortality, anti-feedant effect or growth inhibition) at 200 ppm [3] | mortality at 200 ppm [10] | mortality at 12 ppm [9] | mortality at 50 ppm [6]

CC(NC(=O)c1cc(C(F)(F)F)cc(C(F)(F)F)c1)c1nc(OCC(F)F)nn1-c1ncccn1 (centres unmarked) [Compound P29, N-[1-[5-(2,2-difluoroethoxy)-2-pyrimidin-2-yl-1,2,4-triazol-3-yl]ethyl]-3,5-bis(trifluoromethyl) benzamide]
≥ 80%: percent effect (mortality or growth inhibition) at 200 ppm [1] | percent effect (mortality or growth inhibition) at 200 ppm [2] | percent control (mortality, anti-feedant effect or growth inhibition) at 200 ppm [3] | percent effect (mortality or growth inhibition) at 200 ppm [4] | percent control (mortality, anti-feedant effect or growth inhibition) at 200 ppm [5]
